Results taken from PubChem BioAssay (NCI).
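Five compound concentrations were applied to cells in 96-well plates for 48 hours; endpoints were derived by simple linear interpolation of the resulting dose-response curve. Here, GI50 denotes the concentration required for 50% inhibition of growth. The concentration for full growth arrest is given as TGI.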

Tests used:
Experiment in all cases: NCI anticancer screen, dose series, 48 h
786-0 renal = test system: 786-0 renal
A498 renal = test system: A498 renal
A549 NSCLC = test system: A549 NSCLC
ACHN renal = test system: ACHN renal
BT-549 breast = test system: BT-549 breast
CAKI-1 renal = test system: CAKI-1 renal
COLO 205 colon = test system: COLO 205 colon
DU-145 prostate = test system: DU-145 prostate
EKVX NSCLC = test system: EKVX NSCLC
HCC-2998 colon = test system: HCC-2998 colon
HCT-116 colon = test system: HCT-116 colon
HCT-15 colon = test system: HCT-15 colon
HL-60(TB) leukemia = test system: HL-60(TB) leukemia
HOP-62 NSCLC = test system: HOP-62 NSCLC
HOP-92 NSCLC = test system: HOP-92 NSCLC
HS 578T breast = test system: HS 578T breast
HT29 colon = test system: HT29 colon
IGROV1 ovarian = test system: IGROV1 ovarian
K-562 leukemia = test system: K-562 leukemia
KM12 colon = test system: KM12 colon
LOX IMVI melanoma = test system: LOX IMVI melanoma
M14 melanoma = test system: M14 melanoma
MALME-3M melanoma = test system: MALME-3M melanoma
MCF7 breast = test system: MCF7 breast
MDA-MB-231 breast = test system: MDA-MB-231 breast
MDA-MB-435 = test system: MDA-MB-435
MOLT-4 leukemia = test system: MOLT-4 leukemia
NCI-H226 lung = test system: NCI-H226 lung
NCI-H23 lung = test system: NCI-H23 lung
NCI-H460 lung = test system: NCI-H460 lung
NCI-H522 lung = test system: NCI-H522 lung
NCI/ADR-RES ovarian = test system: NCI/ADR-RES ovarian
OVCAR-3 ovarian = test system: OVCAR-3 ovarian
OVCAR-4 ovarian = test system: OVCAR-4 ovarian
OVCAR-5 ovarian = test system: OVCAR-5 ovarian
OVCAR-8 ovarian = test system: OVCAR-8 ovarian
RPMI-8226 leukemia = test system: RPMI-8226 leukemia
RXF 393 renal = test system: RXF 393 renal
SF-268 CNS = test system: SF-268 CNS
SF-295 CNS = test system: SF-295 CNS
SF-539 CNS = test system: SF-539 CNS
SK-MEL-2 melanoma = test system: SK-MEL-2 melanoma
SK-MEL-28 melanoma = test system: SK-MEL-28 melanoma
SK-MEL-5 melanoma = test system: SK-MEL-5 melanoma
SK-OV-3 ovarian = test system: SK-OV-3 ovarian
SN12C renal = test system: SN12C renal
SNB-19 CNS = test system: SNB-19 CNS
SNB-75 CNS = test system: SNB-75 CNS
SR leukemia = test system: SR leukemia
SW-620 colon = test system: SW-620 colon
T-47D breast = test system: T-47D breast
TK-10 renal = test system: TK-10 renal
U251 CNS = test system: U251 CNS
UACC-257 melanoma = test system: UACC-257 melanoma
UO-31 renal = test system: UO-31 renal

What does the source list for `CC(C)=C[C@@H]1C[C@H](C)[C@H]2CC[C@H](C)c3c(O)c(OC4OCC(O)C(O)C4O)c(C)c1c32` (stereo not given in full)?
GI50 (786-0 renal): 17.9 µM; TGI (786-0 renal): 34.8 µM; GI50 (A498 renal): 13.4 µM; TGI (A498 renal): 27.5 µM; GI50 (A549 NSCLC): 10.3 µM; TGI (A549 NSCLC): 22.7 µM; GI50 (ACHN renal): 14.6 µM; TGI (ACHN renal): 27.8 µM; GI50 (BT-549 breast): 21.6 µM; TGI (BT-549 breast): 39.9 µM; GI50 (CAKI-1 renal): 3.91 µM; TGI (CAKI-1 renal): 18.7 µM; GI50 (COLO 205 colon): 15.5 µM; TGI (COLO 205 colon): 29.7 µM; GI50 (DU-145 prostate): 11.8 µM; TGI (DU-145 prostate): 24 µM; GI50 (EKVX NSCLC): 18.8 µM; TGI (EKVX NSCLC): 33.3 µM; GI50 (HCC-2998 colon): 4.43 µM; TGI (HCC-2998 colon): 19.8 µM; GI50 (HCT-116 colon): 13.9 µM; TGI (HCT-116 colon): 28.4 µM; GI50 (HCT-15 colon): 14 µM; TGI (HCT-15 colon): 26.9 µM; GI50 (HL-60(TB) leukemia): 10.9 µM; TGI (HL-60(TB) leukemia): 24.5 µM; GI50 (HOP-62 NSCLC): 18.2 µM; TGI (HOP-62 NSCLC): 33.6 µM; GI50 (HOP-92 NSCLC): 12.3 µM; TGI (HOP-92 NSCLC): 24.7 µM; GI50 (HS 578T breast): 15.4 µM; TGI (HS 578T breast): 32.1 µM; GI50 (HT29 colon): 11.7 µM; TGI (HT29 colon): 24.7 µM; GI50 (IGROV1 ovarian): 12 µM; TGI (IGROV1 ovarian): 24.3 µM; GI50 (K-562 leukemia): 5.73 µM; TGI (K-562 leukemia): 20.5 µM; GI50 (KM12 colon): 12.7 µM; TGI (KM12 colon): 25.3 µM; GI50 (LOX IMVI melanoma): 15 µM; TGI (LOX IMVI melanoma): 28.2 µM; GI50 (M14 melanoma): 15.8 µM; TGI (M14 melanoma): 39.3 µM; GI50 (MALME-3M melanoma): 14.1 µM; TGI (MALME-3M melanoma): 27.6 µM; GI50 (MCF7 breast): 13.1 µM; TGI (MCF7 breast): 25.8 µM; GI50 (MDA-MB-231 breast): 13.5 µM; TGI (MDA-MB-231 breast): 26.3 µM; GI50 (MDA-MB-435): 11.4 µM; TGI (MDA-MB-435): 24.3 µM; GI50 (MOLT-4 leukemia): 5.24 µM; TGI (MOLT-4 leukemia): 19.7 µM; GI50 (NCI-H226 lung): 15.8 µM; TGI (NCI-H226 lung): 30.6 µM; GI50 (NCI-H23 lung): 12.8 µM; TGI (NCI-H23 lung): 25.5 µM; GI50 (NCI-H460 lung): 12.3 µM; TGI (NCI-H460 lung): 24.7 µM; GI50 (NCI-H522 lung): 16.4 µM; TGI (NCI-H522 lung): 30.2 µM; GI50 (NCI/ADR-RES ovarian): 10.2 µM; TGI (NCI/ADR-RES ovarian): 21.9 µM; GI50 (OVCAR-3 ovarian): 11.9 µM; TGI (OVCAR-3 ovarian): 24.3 µM; GI50 (OVCAR-4 ovarian): 9.39 µM; TGI (OVCAR-4 ovarian): 22.1 µM; GI50 (OVCAR-5 ovarian): 12.6 µM; TGI (OVCAR-5 ovarian): 25.2 µM; GI50 (OVCAR-8 ovarian): 16.6 µM; TGI (OVCAR-8 ovarian): 33 µM; GI50 (RPMI-8226 leukemia): 10.8 µM; TGI (RPMI-8226 leukemia): 22.9 µM; GI50 (RXF 393 renal): 10.9 µM; TGI (RXF 393 renal): 23.4 µM; GI50 (SF-268 CNS): 12.4 µM; TGI (SF-268 CNS): 24.9 µM; GI50 (SF-295 CNS): 14.2 µM; TGI (SF-295 CNS): 29.3 µM; GI50 (SF-539 CNS): 18.7 µM; TGI (SF-539 CNS): 34.6 µM; GI50 (SK-MEL-2 melanoma): 20.8 µM; TGI (SK-MEL-2 melanoma): 36.4 µM; GI50 (SK-MEL-28 melanoma): 14.4 µM; TGI (SK-MEL-28 melanoma): 27.7 µM; GI50 (SK-MEL-5 melanoma): 12.3 µM; TGI (SK-MEL-5 melanoma): 25 µM; GI50 (SK-OV-3 ovarian): 18.9 µM; TGI (SK-OV-3 ovarian): 33.2 µM; GI50 (SN12C renal): 10.2 µM; TGI (SN12C renal): 21.8 µM; GI50 (SNB-19 CNS): 16.2 µM; TGI (SNB-19 CNS): 29.8 µM; GI50 (SNB-75 CNS): 12.7 µM; TGI (SNB-75 CNS): 25.9 µM; GI50 (SR leukemia): 6.92 µM; TGI (SR leukemia): 20.5 µM; GI50 (SW-620 colon): 15.9 µM; TGI (SW-620 colon): 29.3 µM; GI50 (T-47D breast): 13.3 µM; TGI (T-47D breast): 28.1 µM; GI50 (TK-10 renal): 15.4 µM; TGI (TK-10 renal): 28.9 µM; GI50 (U251 CNS): 16.1 µM; TGI (U251 CNS): 29.6 µM; GI50 (UACC-257 melanoma): 6.44 µM; TGI (UACC-257 melanoma): 19.7 µM; GI50 (UO-31 renal): 17.8 µM; TGI (UO-31 renal): 31.6 µM
